Data published in PubChem BioAssay AID256 (DTP/NCI, 2004).
Values joined by “and” are separate entries in the source; they are usually repeats but may differ in a detail not shown here. Identical values can stand only once. Inconclusive results and toxic doses are left out. How the source made its calls: active means survival T/C of 150% or more; inactive means T/C below 125% in these data.

Tested on: CD2F1 mice, L1210 leukemia ip, survival T/C
Assay: NCI In Vivo Anticancer Drug Screen. Data for tumor model L1210 Leukemia (intraperitoneal) in CD2F1 (CDF1) mice
Details: higher = longer survival
Outline: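 Read-out first: treated-group measurement over vehicle-control measurement, expressed as a ratio. Animals bore a transplanted tumor line and were dosed with compound or vehicle.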

[1] = endpoint: mean survival time, dose: 100.0 mg/kg/injection, schedule: Q01DX009 (ip), vehicle: saline with Tween-80
[2] = endpoint: mean survival time, dose: 100.0 mg/kg/injection, schedule: Q04DX003 (ip), vehicle: saline with Tween-80
[3] = endpoint: mean survival time, dose: 200.0 mg/kg/injection, schedule: Q01DX009 (ip), vehicle: saline with Tween-80
[4] = endpoint: mean survival time, dose: 200.0 mg/kg/injection, schedule: Q04DX003 (ip), vehicle: saline with Tween-80
[5] = endpoint: mean survival time, dose: 400.0 mg/kg/injection, schedule: Q01DX009 (ip), vehicle: saline with Tween-80
[6] = endpoint: mean survival time, dose: 400.0 mg/kg/injection, schedule: Q04DX003 (ip), vehicle: saline with Tween-80
[7] = endpoint: mean survival time, dose: 12.5 mg/kg/injection, schedule: Q01DX009 (ip), vehicle: saline with Tween-80
[8] = endpoint: mean survival time, dose: 25.0 mg/kg/injection, schedule: Q01DX009 (ip), vehicle: saline with Tween-80
[9] = endpoint: mean survival time, dose: 50.0 mg/kg/injection, schedule: Q01DX009 (ip), vehicle: saline with Tween-80
[10] = endpoint: mean survival time, dose: 100.0 mg/kg/injection, schedule: Q01DX001 (ip), vehicle: saline
[11] = endpoint: mean survival time, dose: 200.0 mg/kg/injection, schedule: Q01DX001 (ip), vehicle: saline
[12] = endpoint: mean survival time, dose: 400.0 mg/kg/injection, schedule: Q01DX001 (ip), vehicle: saline
[13] = endpoint: mean survival time, dose: 25.0 mg/kg/injection, schedule: Q04DX003 (ip), vehicle: saline with Tween-80
[14] = endpoint: mean survival time, dose: 50.0 mg/kg/injection, schedule: Q04DX003 (ip), vehicle: saline with Tween-80
[15] = endpoint: mean survival time, dose: 12.5 mg/kg/injection, schedule: Q01DX005 (ip), vehicle: water
[16] = endpoint: mean survival time, dose: 25.0 mg/kg/injection, schedule: Q01DX005 (ip), vehicle: water
[17] = endpoint: mean survival time, dose: 50.0 mg/kg/injection, schedule: Q01DX005 (ip), vehicle: water

Measured: T/C

CCOC(=O)c1ccc(NC(=O)N(CC)c2ccccc2)cc1
inactive: [1] 96 % of control and 100 % of control | endpoint: mean survival time, dose: 100.0 mg/kg/injection, schedule: Q04DX002 (ip), vehicle: saline with Tween-80 100 % of control and 109 % of control | [2] 94 % of control | [3] 95 % of control and 104 % of control | endpoint: mean survival time, dose: 200.0 mg/kg/injection, schedule: Q04DX002 (ip), vehicle: saline with Tween-80 92 % of control and 102 % of control | [4] 94 % of control | [5] 96 % of control and 100 % of control | endpoint: mean survival time, dose: 400.0 mg/kg/injection, schedule: Q04DX002 (ip), vehicle: saline with Tween-80 94 % of control and 98 % of control | [6] 95 % of control

Cc1cc(Cl)ccc1NC(=O)Nc1nccs1
inactive: [7] 98 % of control | [8] 98 % of control | [9] 95 % of control | [1] 95 % of control | [3] 100 % of control

Cc1ccc(C(=O)c2ccccc2Cl)cc1
inactive: endpoint: mean survival time, dose: 15.0 mg/kg/injection, schedule: Q01DX009 (ip), vehicle: Klucel (hydroxypropylcellulose) (HPC) 91 % of control | endpoint: mean survival time, dose: 30.0 mg/kg/injection, schedule: Q01DX009 (ip), vehicle: Klucel (hydroxypropylcellulose) (HPC) 87 % of control | endpoint: mean survival time, dose: 60.0 mg/kg/injection, schedule: Q01DX009 (ip), vehicle: Klucel (hydroxypropylcellulose) (HPC) 87 % of control

CCN(CC)CCOc1ccc(C2=CC3(CCCCC3)c3ccccc32)cc1
inactive: endpoint: mean survival time, dose: 12.5 mg/kg/injection, schedule: Q04DX002 (ip), vehicle: saline with Tween-80 106 % of control | endpoint: mean survival time, dose: 25.0 mg/kg/injection, schedule: Q04DX002 (ip), vehicle: saline with Tween-80 98 % of control

CN(C)S(=O)(=O)Oc1ccccc1[N+](=O)[O-]
inactive: [1] 100 % of control | [3] 97 % of control | [5] 98 % of control

CC(=O)OCC1OC(n2cnc3[nH]c(=S)[nH]c(=S)c32)C(OC(C)=O)C1OC(C)=O (stereo not drawn)
inactive: [10] 103 % of control | [11] 96 % of control | [12] 97 % of control

Brc1ccc(-c2csc(Nc3nc(-c4ccc(Br)cc4)cs3)n2)cc1
inactive: [7] 86 % of control | [8] 96 % of control | [13] 97 % of control | [9] 96 % of control | [14] 87 % of control | [2] 88 % of control | [6] 92 % of control

N=C(N)c1ccc(N=Nc2c(O)ccc3cc(O)ccc23)cc1
inactive: endpoint: median survival time, dose: 12.5 mg/kg/injection, schedule: Q01DX005 (ip), vehicle: Klucel (hydroxypropylcellulose) (HPC) 104 % of control and 107 % of control | endpoint: median survival time, dose: 25.0 mg/kg/injection, schedule: Q01DX005 (ip), vehicle: Klucel (hydroxypropylcellulose) (HPC) 100 % of control and 102 % of control | endpoint: median survival time, dose: 50.0 mg/kg/injection, schedule: Q01DX005 (ip), vehicle: Klucel (hydroxypropylcellulose) (HPC) 90 % of control and 103 % of control | endpoint: median survival time, dose: 100.0 mg/kg/injection, schedule: Q01DX005 (ip), vehicle: Klucel (hydroxypropylcellulose) (HPC) 95 % of control and 107 % of control | endpoint: median survival time, dose: 200.0 mg/kg/injection, schedule: Q01DX005 (ip), vehicle: Klucel (hydroxypropylcellulose) (HPC) 104 % of control

CC(=O)NCNC(C)=O
inactive: [10] 100 % of control | [11] 93 % of control | [12] 100 % of control

CC(C)(CCC(=O)O)C(=O)O
inactive: [9] 100 % of control | [1] 98 % of control | endpoint: mean survival time, dose: 100.0 mg/kg/injection, schedule: Q04DX003 (ip), vehicle: saline 102 % of control | [3] 98 % of control | endpoint: mean survival time, dose: 200.0 mg/kg/injection, schedule: Q04DX003 (ip), vehicle: saline 96 % of control

CNc1ccccc1CO
inactive: endpoint: mean survival time, dose: 100.0 mg/kg/injection, schedule: Q01DX009 (ip), vehicle: other 107 % of control | endpoint: mean survival time, dose: 200.0 mg/kg/injection, schedule: Q01DX009 (ip), vehicle: other 97 % of control | endpoint: mean survival time, dose: 400.0 mg/kg/injection, schedule: Q01DX009 (ip), vehicle: other 103 % of control

CCC(C(=O)O)C(=O)O.[NH-]CC[NH-].[Pt+2]
inactive: [13] 101 % of control | [14] 104 % of control | [2] 112 % of control

CCOC(=O)NC(S(=O)(=O)O)S(=O)(=O)O
inactive: [10] 104 % of control | [11] 104 % of control | [12] 108 % of control

CSc1nc(N)c2c(n1)nc(N(C)C)n2O
inactive: [15] 106 % of control | [16] 102 % of control | [17] 93 % of control | endpoint: mean survival time, dose: 100.0 mg/kg/injection, schedule: Q01DX005 (ip), vehicle: water 95 % of control | endpoint: mean survival time, dose: 200.0 mg/kg/injection, schedule: Q01DX005 (ip), vehicle: water 97 % of control

COc1ccc(CNCCO)cc1OC
inactive: endpoint: median survival time, dose: 25.0 mg/kg/injection, schedule: Q04DX003 (ip), vehicle: saline 90 % of control | endpoint: median survival time, dose: 50.0 mg/kg/injection, schedule: Q04DX003 (ip), vehicle: saline 90 % of control | endpoint: median survival time, dose: 100.0 mg/kg/injection, schedule: Q04DX003 (ip), vehicle: saline 90 % of control | endpoint: median survival time, dose: 200.0 mg/kg/injection, schedule: Q04DX003 (ip), vehicle: saline 100 % of control

CC1=C(C#[N+][O-])C(C)(C)CCC1
inactive: endpoint: mean survival time, dose: 75.0 mg/kg/injection, schedule: Q01DX001 (ip), vehicle: other 102 % of control | endpoint: mean survival time, dose: 150.0 mg/kg/injection, schedule: Q01DX001 (ip), vehicle: other 97 % of control | endpoint: mean survival time, dose: 300.0 mg/kg/injection, schedule: Q01DX001 (ip), vehicle: other 105 % of control

CCCCOc1cc([N+](=O)[O-])ccc1CO
inactive: [2] 94 % of control | [4] 92 % of control | [6] 87 % of control

Cc1ncc(CO)n1C
inactive: endpoint: mean survival time, dose: 50.0 mg/kg/injection, schedule: Q01DX009 (ip), vehicle: Klucel (hydroxypropylcellulose) (HPC) 94 % of control | endpoint: mean survival time, dose: 100.0 mg/kg/injection, schedule: Q01DX009 (ip), vehicle: Klucel (hydroxypropylcellulose) (HPC) 105 % of control | endpoint: mean survival time, dose: 200.0 mg/kg/injection, schedule: Q01DX009 (ip), vehicle: Klucel (hydroxypropylcellulose) (HPC) 105 % of control

CCCc1cc(C(C)=O)c[n+](C2OC(COC(C)=O)C(OC(C)=O)C(OC(C)=O)C2OC(C)=O)c1 (stereo not drawn)
inactive: endpoint: mean survival time, dose: 3.13 mg/kg/injection, schedule: Q01DX005 (ip), vehicle: water 107 % of control | endpoint: mean survival time, dose: 6.25 mg/kg/injection, schedule: Q01DX005 (ip), vehicle: water 100 % of control | [15] 104 % of control | [16] 109 % of control | [17] 95 % of control

CC1(C)OCC(CO)([N+](=O)[O-])CO1
inactive: [2] 96 % of control

CC(CCOP(=O)(N(C)C)N(CCCl)CCCl)OCc1ccccc1 (stereo not drawn)
inactive: endpoint: mean survival time, dose: 25.0 mg/kg/injection, schedule: Q01DX001 (ip), vehicle: other 101 % of control | endpoint: mean survival time, dose: 50.0 mg/kg/injection, schedule: Q01DX001 (ip), vehicle: other 102 % of control | endpoint: mean survival time, dose: 100.0 mg/kg/injection, schedule: Q01DX001 (ip), vehicle: other 98 % of control | endpoint: mean survival time, dose: 200.0 mg/kg/injection, schedule: Q01DX001 (ip), vehicle: other 87 % of control | endpoint: mean survival time, dose: 400.0 mg/kg/injection, schedule: Q01DX001 (ip), vehicle: other 95 % of control
